According to the supplement of paper PMC5844555:

How the values were obtained:
Assay in all cases: 3' UTR reporter interaction score (median-centred robust z-score of log2 firefly/Renilla activity); higher = less repression of the 3' UTR reporter
Details in all cases: HEK293T; 48 h
BRCA2 = system: BRCA2
Outline: (§1)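 HEK293T cells were seeded at 10,000 per well in 96-well plates and co-transfected with DharmaFECT Duo, using 100 ng of a firefly luc2P reporter carrying the gene's 3' UTR, 20 ng of Renilla pRL-TK control and 2.5 pmol of miRNA mimic. Both luciferase activities were measured 48 h after transfection. The interaction score is the log-transformed firefly/Renilla ratio, converted to a per-plate robust z-score from the median and median absolute deviation and then median-centred per miRNA, with more negative values indicating interaction. Scores were averaged across at least two independent screens.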

EZH2 = system: EZH2
Outline: as §1

FBXW7 = system: FBXW7
Outline: as §1

HRAS = system: HRAS
Outline: as §1

MYB = system: MYB
Outline: as §1

MYCN = system: MYCN
Outline: as §1

MYC = system: MYC
Outline: as §1

MYT1L = system: MYT1L
Outline: as §1

NOTCH1 = system: NOTCH1
Outline: as §1

PHF6 = system: PHF6
Outline: as §1

PHOX2B = system: PHOX2B
Outline: as §1

RB1 = system: RB1
Outline: as §1

TP53 = system: TP53
Outline: as §1

ZEB2 = system: ZEB2
Outline: as §1

Sequence	3' UTR reporter interaction score (BRCA2)	3' UTR reporter interaction score (EZH2)	3' UTR reporter interaction score (FBXW7)	3' UTR reporter interaction score (HRAS)	3' UTR reporter interaction score (MYB)	3' UTR reporter interaction score (MYCN)	3' UTR reporter interaction score (MYC)	3' UTR reporter interaction score (MYT1L)	3' UTR reporter interaction score (NOTCH1)	3' UTR reporter interaction score (PHF6)	3' UTR reporter interaction score (PHOX2B)	3' UTR reporter interaction score (RB1)	3' UTR reporter interaction score (TP53)	3' UTR reporter interaction score (ZEB2)
UAUGGCUUUUUAUUCCUAUGUGA	0.03	0.742	0.0824	-0.268	-0.0826	0.776	-0.0719	0.172	-0.625	0.879	-1.06	-0.178	0.14	0.676
UAUGUAAUAUGGUCCACAUCUU	-0.619	-0.223	0.706	-0.0539	0.474	0.254	0.455	1.41	0.765	-0.945	0.805	0.421	-0.793	-1.16
UAUGUGCCUUUGGACUACAUCG	-1.13	-0.568	0.444	-0.0556	0.663	0	0.403	-1.09	0.00167	0.707	-3.33	0.319	-0.404	0.0793
UAUGUGGGAUGGUAAACCGCUU	-0.81	0.226	1.55	-0.809	1.45	0.212	0.022	-2.09	0.24	-0.864	-0.0868	0.217	-0.352	2.77
UAUUGCACUCGUCCCGGCCUC	0.27	-0.851	-2.89	-0.467	0.69	1.3	0.586	-1.11	-1.13	0.726	1.55	0.116	-0.261	-1.97
UAUUGCACUUGUCCCGGCCUG	1.75	-0.214	-2.99	0.114	-1.54	1.23	0.754	-1.81	-0.177	0.0608	0.517	1.41	0.235	-2.03
UAUUGCUUAAGAAUACGCGUAG	0.543	0.837	-1.25	0.147	-0.789	0.474	-0.116	0.685	-0.139	-1.32	-0.259	0.636	-0.087	0.0907
UCAAAUGCUCAGACUCCUGU	-3.48	0.251	0.918	0.546	-3.31	1.14	-0.559	-0.983	-0.149	0.837	0.0556	1.29	-0.221	-1
UCAAGAGCAAUAACGAAAAAUGU	0.701	-0.0128	0.698	-0.0915	-0.127	-0.782	-0.189	-2.38	0.351	0.162	-0.662	-2.16	0.338	0.703
UCACAAUGCUGACACUCAAACUGCUGAC	-3.53	0.195	0.257	-0.335	-0.419	-0.126	0.447	0.647	-0.0831	0.399	0.242	-0.143	-0.424	-1.11
UCACAGUGAACCGGUCUCUUUC	0.111	0.78	-1.67	-0.688	-1.23	0.302	0.45	0.655	-0.749	-3.58	0.244	-0.537	0.241	-2.39
UCACAGUGAACCGGUCUCUUUU	-0.31	0.47	-1.07	-2.6	0.662	1.36	-0.0365	-2.56	-0.144	1.79	-1.31	1.15	0.412	-4.74
UCAGAACAAAUGCCGGUUCCCAGA	-0.146	0.61	0.465	1.03	0.483	0.0784	0.178	-0.318	-0.509	0.882	-0.368	-0.316	-1.5	0.0144
UCAGGCUCAGUCCCCUCCCGAU	0.841	0.0569	0.573	-0.122	-1.88	-0.567	0.0353	-0.304	-0.181	0.0613	0.106	0.0824	0.0121	1.33
UCAGUCUCAUCUGCAAAGAAG	-0.924	1.71	0.372	1.08	-0.485	1.11	0.794	-1.02	-1.13	-0.895	0.237	0.581	-0.202	-0.368
UCAGUGCACUACAGAACUUUGU	-1.23	-0.364	0.473	-0.763	-1.33	0.963	0.0974	1.34	0.169	0.792	-0.0276	1.18	-0.523	1.75
UCAGUGCAUCACAGAACUUUGU	-1.11	-0.211	0.15	-0.998	-1.04	0.974	0.216	1.61	0.0134	0.428	-0.909	1.28	-0.15	1.9
UCAGUGCAUGACAGAACUUGGG	-0.0322	0.0466	0.501	-1.05	-1.5	0.0157	0.213	0.827	0.274	1.76	-1.31	-2.16	-0.341	1.1
UCCAGCAUCAGUGAUUUUGUUGA	0.64	0.0592	-0.0681	-0.335	0.387	-0.105	-0.461	-0.429	-0.191	0.0153	1.43	-0.243	-0.53	0.915
